In ChEMBL document CHEMBL1138989, “Selective antiproliferative activity of hydroxynaphthyl-beta-D-xylosides” (J Med Chem, 2006):
Active and inactive are the calls of the source. No cut-off for these calls is given here.

What was measured:
[1] = test system: T-24; assay: Ability to prime Heparan sulfate synthesis in T24 cells at 0.1 mM; format: functional, Homo sapiens
[2] = Dissociation constant, pKa of the compound; format: physicochemical
[3] = test system: HFL1; assay: Antiproliferative activity against human fibroblast HFL1 cells; format: functional; conditions: read-out: ED50 (the source's name)
[4] = test system: T-24; assay: Antiproliferative activity against human bladder carcinoma T24 cells; format: functional; conditions: read-out: ED50 (the source's name)
[5] = test system: BALB/3T3; assay: Antiproliferative activity against mouse fibroblast 3T3 A31 cells; format: functional; conditions: read-out: ED50 (the source's name)
[6] = test system: SV3T3; assay: Antiproliferative activity against virus transformed mouse fibroblast 3T3 SV40 cells; format: functional; conditions: read-out: ED50 (the source's name)
[7] = test system: T-24; assay: Induction of apoptosis in T24 cells using TUNEL assay; format: functional, cell-based; conditions: Homo sapiens

pKa [2]	SMILES	Activity [1] [%]	EC50 [3] [µM]	EC50 [4] [µM]	EC50 [5] [µM]	EC50 [6] [µM]	Activity [7]
9.35	Oc1ccc2cccc(O[C@@H]3OC[C@@H](O)[C@H](O)[C@H]3O)c2c1	15	370	370	260	550	
8.72	Oc1c(O[C@@H]2OC[C@@H](O)[C@H](O)[C@H]2O)ccc2ccccc12	22	40	160	120	120	
	Oc1cccc2cccc(O)c12		20	10			
8.76	Oc1cc2ccccc2cc1O[C@@H]1OC[C@@H](O)[C@H](O)[C@H]1O	28	190	400	25	180	
9.17	Oc1cccc2cc(O[C@@H]3OC[C@@H](O)[C@H](O)[C@H]3O)ccc12	12	500	600	> 500	430	
	O[C@@H]1[C@@H](O)[C@H](Oc2ccc3ccccc3c2)OC[C@H]1O						inactive
9.29	Oc1cccc2ccc(O[C@@H]3OC[C@@H](O)[C@H](O)[C@H]3O)cc12	27	330	420	160	510	
	Oc1ccc2ccc(O)cc2c1		70	30			
	Oc1ccc2cccc(O)c2c1		< 25	< 10			
8.63	Oc1ccc2ccccc2c1O[C@@H]1OC[C@@H](O)[C@H](O)[C@H]1O	2	80	150	10	65	
8.66	Oc1cc(O[C@@H]2OC[C@@H](O)[C@H](O)[C@H]2O)cc2ccccc12	20	320	25	410	575	
	Oc1cc2ccccc2cc1O		40	30			
10.1	Oc1cccc2cccc(O[C@@H]3OC[C@@H](O)[C@H](O)[C@H]3O)c12	27	180	220	185	340	
9.22	Oc1cc(O[C@@H]2OC[C@@H](O)[C@H](O)[C@H]2O)c2ccccc2c1	14	240	100	130	275	
	Oc1cc(O)c2ccccc2c1		100	70			
	Oc1cccc2c(O)cccc12		20	< 10			
	Oc1ccc(O)c2ccccc12		1	0.7			
9.34	Oc1ccc2c(O[C@@H]3OC[C@@H](O)[C@H](O)[C@H]3O)cccc2c1	13	370	125	210	> 500	
9.63	Oc1ccc2cc(O[C@@H]3OC[C@@H](O)[C@H](O)[C@H]3O)ccc2c1	30	500	100	440	320	Active
	Oc1ccc2ccccc2c1O		25	13			
9.4	Oc1ccc(O[C@@H]2OC[C@@H](O)[C@H](O)[C@H]2O)c2ccccc12	12	6	1	165	105	
9.16	Oc1cccc2c(O[C@@H]3OC[C@@H](O)[C@H](O)[C@H]3O)cccc12	29	500	470	> 500	> 500	
	Oc1ccc2cc(O)ccc2c1		< 25	< 10			
	Oc1ccc2c(O)cccc2c1		70	20			
9.41	Oc1ccc2ccc(O[C@@H]3OC[C@@H](O)[C@H](O)[C@H]3O)cc2c1	37	500	500	300	460	
